From patent US6423541B1, “Process for in vitro selection of high methol producing genotypes” (Council of Scientific&Industrial Reaearch, priority 2000, dated 2002)

What was measured:
Assay in all cases: Survival of in vitro raised shoots on menthol containing MS basal medium
Format in all cases: cell-based
[1] = test system: regenerated shoots of Mentha arvensis variety Himalaya
Description: (§1) The plant varieties analysed were Himalaya, Shivalik, Gomti, MAS-1, Kosi, Kalka of Mentha arvensis L. (2n=96). The suckers of these plant varieties were obtained from CIMAP's national gene bank for medicinal and aromatic plants for planting. The explant materials were collected from the field grown plants and surface sterilized by washing sequentially with 2% detergent, distilled water containing a few drops of Savlon (Johnson and Johnson, India), 0.1% acidified mercuric chloride and autoclaved distilled water before inoculation. About 1 cm long internodal pieces were inoculated in the MS medium (Murasighe and Skoog, 1962) containing vitamins, 100 mg l^−1 myo-inositol 3% wv^−1 sucrose, 1.5% wv^−1 agar (Difco), 0.5 .μg ml^−1 of an auxin, (NAA, 1-napthalene acetic acid) and 5 μg ml^−1 of a cytokinin (BAP, benzyl aminopurine) (Shasany et al, 1998). The cultures were grown at 25±2° C. and 400 to 600 lux light intensity with 16 h photoperiod. The regenerated shoots were separated 12 weeks after the explant inoculation for rooting and/or testing menthol tolerance.
(§2) The regenerated shoots (3-4 cm long, containing the apical bud and 2-3 nodes) separated after 12 weeks, were inoculated into MS basal medium with or without menthol (0 to 100 μg ml^−1). Concentration of menthol in each treatment was stepped up by 10 μg in a sequential manner. On each kind of these media, 5 independently regenerated shoots were inoculated per flask; 4 flasks were inoculated per replication and each treatment was replicated 5 times, making the number of flasks to 20 and number of explants to 100 for each concentration of menthol. The experiment was conducted in the completely randomized design (CRD) fashion. Cultures were incubated and maintained at 25±2° C. and 400-600 lux light intensity with 16-hour photoperiod. The wilting response and lethality in explants was recorded every 24 hours over a period of one week.

[2] = test system: regenerated shoots of Mentha arvensis variety Kalka
Description: as §1, §2

[3] = test system: regenerated shoots of Mentha arvensis variety Kosi
Description: as §1, §2

[4] = test system: regenerated shoots of Mentha arvensis variety MAS-1
Description: as §1, §2

[5] = test system: regenerated shoots of Mentha arvensis variety Shivalik
Description: as §1, §2

[6] = 100-ppm menthol, twenty-four hours after incubation
[7] = menthol 10 μg ml^−1, 20 shoots tested per replication
[8] = menthol 20 μg ml^−1, 20 shoots tested per replication
[9] = menthol 30 μg ml^−1, 20 shoots tested per replication
[10] = menthol 40 μg ml^−1, 20 shoots tested per replication
[11] = menthol 50 μg ml^−1, 20 shoots tested per replication
[12] = menthol 60 μg ml^−1, 20 shoots tested per replication
[13] = menthol 70 μg ml^−1, 20 shoots tested per replication
[14] = menthol 80 μg ml^−1, 20 shoots tested per replication
[15] = menthol 90 μg ml^−1, 20 shoots tested per replication
[16] = menthol 100 μg ml^−1, 20 shoots tested per replication

## CC1CCC(C(C)C)C(O)C1 (stereo not shown) [menthol]
[1]; [6]
  lethality: 100%
[1]; menthol 10 μg ml^−1
  Survival after 7 days Number: 20.0 ± 0.00
[1]; [7]
  Survival after 24 hours Number: 20.0 ± 0.00
[1]; menthol 20 μg ml^−1
  Survival after 7 days Number: 20.0 ± 0.00
[1]; [8]
  Survival after 24 hours Number: 20.0 ± 0.00
[1]; menthol 30 μg ml^−1
  Survival after 7 days Number: 20.0 ± 0.00
[1]; [9]
  Survival after 24 hours Number: 20.0 ± 0.00
[1]; menthol 40 μg ml^−1
  Survival after 7 days Number: 17.6 ± 0.66
[1]; [10]
  Survival after 24 hours Number: 20.0 ± 0.00
[1]; menthol 50 μg ml^−1
  Survival after 7 days Number: 9.0 ± 0.41
[1]; [11]
  Survival after 24 hours Number: 17.0 ± 0.91
[1]; menthol 60 μg ml^−1
  Survival after 7 days Number: 2.0 ± 0.41
[1]; [12]
  Survival after 24 hours Number: 14.0 ± 0.91
[1]; menthol 70 μg ml^−1
  Survival after 7 days Number: 0.2 ± 0.26
[1]; [13]
  Survival after 24 hours Number: 9.0 ± 0.91
[1]; menthol 80 μg ml^−1
  Survival after 7 days Number: 0.0 ± 0.00
[1]; [14]
  Survival after 24 hours Number: 4.0 ± 0.58
[1]; menthol 90 μg ml^−1
  Survival after 7 days Number: 0.0 ± 0.00
[1]; [15]
  Survival after 24 hours Number: 2.0 ± 0.40
[1]; menthol 100 μg ml^−1
  Survival after 7 days Number: 0.0 ± 0.00
[1]; [16]
  Survival after 24 hours Number: 0.0 ± 0.00
[2]; [6]
  lethality: 98%
[2]; menthol 10 μg ml^−1
  Survival after 7 days Number: 20.0 ± 0.00
[2]; [7]
  Survival after 24 hours Number: 20.0 ± 0.00
[2]; menthol 20 μg ml^−1
  Survival after 7 days Number: 20.0 ± 0.00
[2]; [8]
  Survival after 24 hours Number: 20.0 ± 0.00
[2]; menthol 30 μg ml^−1
  Survival after 7 days Number: 20.0 ± 0.00
[2]; [9]
  Survival after 24 hours Number: 20.0 ± 0.00
[2]; menthol 40 μg ml^−1
  Survival after 7 days Number: 17.6 ± 0.66
[2]; [10]
  Survival after 24 hours Number: 20.0 ± 0.00
[2]; menthol 50 μg ml^−1
  Survival after 7 days Number: 13.8 ± 0.86
[2]; [11]
  Survival after 24 hours Number: 19.4 ± 0.52
[2]; menthol 60 μg ml^−1
  Survival after 7 days Number: 10.0 ± 0.91
[2]; [12]
  Survival after 24 hours Number: 17.0 ± 0.41
[2]; menthol 70 μg ml^−1
  Survival after 7 days Number: 4.0 ± 0.81
[2]; [13]
  Survival after 24 hours Number: 11.0 ± 0.58
[2]; menthol 80 μg ml^−1
  Survival after 7 days Number: 0.0 ± 0.00
[2]; [14]
  Survival after 24 hours Number: 6.0 ± 0.82
[2]; menthol 90 μg ml^−1
  Survival after 7 days Number: 0.0 ± 0.00
[2]; [15]
  Survival after 24 hours Number: 3.0 ± 0.36
[2]; menthol 100 μg ml^−1
  Survival after 7 days Number: 0.0 ± 0.00
[2]; [16]
  Survival after 24 hours Number: 0.4 ± 0.26
[3]; [6]
  lethality: 99%
[3]; menthol 10 μg ml^−1
  Survival after 7 days Number: 20.0 ± 0.00
[3]; [7]
  Survival after 24 hours Number: 20.0 ± 0.00
[3]; menthol 20 μg ml^−1
  Survival after 7 days Number: 20.0 ± 0.00
[3]; [8]
  Survival after 24 hours Number: 20.0 ± 0.00
[3]; menthol 30 μg ml^−1
  Survival after 7 days Number: 20.0 ± 0.00
[3]; [9]
  Survival after 24 hours Number: 20.0 ± 0.00
[3]; menthol 40 μg ml^−1
  Survival after 7 days Number: 18.0 ± 0.41
[3]; [10]
  Survival after 24 hours Number: 20.0 ± 0.00
[3]; menthol 50 μg ml^−1
  Survival after 7 days Number: 10.0 ± 0.52
[3]; [11]
  Survival after 24 hours Number: 17.0 ± 0.41
[3]; menthol 60 μg ml^−1
  Survival after 7 days Number: 8.0 ± 0.82
[3]; [12]
  Survival after 24 hours Number: 15.0 ± 0.91
[3]; menthol 70 μg ml^−1
  Survival after 7 days Number: 1.0 ± 0.40
[3]; [13]
  Survival after 24 hours Number: 7.0 ± 0.82
[3]; menthol 80 μg ml^−1
  Survival after 7 days Number: 0.0 ± 0.00
[3]; [14]
  Survival after 24 hours Number: 3.0 ± 0.41
[3]; menthol 90 μg ml^−1
  Survival after 7 days Number: 0.0 ± 0.00
[3]; [15]
  Survival after 24 hours Number: 2.0 ± 0.32
[3]; menthol 100 μg ml^−1
  Survival after 7 days Number: 0.0 ± 0.00
[3]; [16]
  Survival after 24 hours Number: 0.2 ± 0.32
[4]; 80 ppm menthol, after 7 days of incubation
  survival: 2%
[4]; [6]
  lethality: 98%
[4]; menthol 10 μg ml^−1
  Survival after 7 days Number: 20.0 ± 0.00
[4]; [7]
  Survival after 24 hours Number: 20.0 ± 0.00
[4]; menthol 20 μg ml^−1
  Survival after 7 days Number: 20.0 ± 0.00
[4]; [8]
  Survival after 24 hours Number: 20.0 ± 0.00
[4]; menthol 30 μg ml^−1
  Survival after 7 days Number: 20.0 ± 0.00
[4]; [9]
  Survival after 24 hours Number: 20.0 ± 0.00
[4]; menthol 40 μg ml^−1
  Survival after 7 days Number: 18.0 ± 0.57
[4]; [10]
  Survival after 24 hours Number: 20.0 ± 0.00
[4]; menthol 50 μg ml^−1
  Survival after 7 days Number: 13.4 ± 0.66
[4]; [11]
  Survival after 24 hours Number: 19.0 ± 0.57
[4]; menthol 60 μg ml^−1
  Survival after 7 days Number: 10.0 ± 0.91
[4]; [12]
  Survival after 24 hours Number: 16.0 ± 0.57
[4]; menthol 70 μg ml^−1
  Survival after 7 days Number: 3.0 ± 0.58
[4]; [13]
  Survival after 24 hours Number: 10.0 ± 0.82
[4]; menthol 80 μg ml^−1
  Survival after 7 days Number: 0.4 ± 0.32
[4]; [14]
  Survival after 24 hours Number: 5.0 ± 0.41
[4]; menthol 90 μg ml^−1
  Survival after 7 days Number: 0.0 ± 0.00
[4]; [15]
  Survival after 24 hours Number: 3.0 ± 0.32
[4]; menthol 100 μg ml^−1
  Survival after 7 days Number: 0.0 ± 0.00
[4]; [16]
  Survival after 24 hours Number: 0.4 ± 0.32
[5]; [6]
  lethality: 98%
[5]; menthol 10 μg ml^−1
  Survival after 7 days Number: 20.0 ± 0.00
[5]; [7]
  Survival after 24 hours Number: 20.0 ± 0.00
[5]; menthol 20 μg ml^−1
  Survival after 7 days Number: 20.0 ± 0.00
[5]; [8]
  Survival after 24 hours Number: 20.0 ± 0.00
[5]; menthol 30 μg ml^−1
  Survival after 7 days Number: 20.0 ± 0.00
[5]; [9]
  Survival after 24 hours Number: 20.0 ± 0.00
[5]; menthol 40 μg ml^−1
  Survival after 7 days Number: 18.0 ± 0.41
[5]; [10]
  Survival after 24 hours Number: 20.0 ± 0.00
[5]; menthol 50 μg ml^−1
  Survival after 7 days Number: 11.0 ± 0.41
[5]; [11]
  Survival after 24 hours Number: 18.0 ± 0.91
[5]; menthol 60 μg ml^−1
  Survival after 7 days Number: 5.0 ± 0.71
[5]; [12]
  Survival after 24 hours Number: 15.0 ± 0.11
[5]; menthol 70 μg ml^−1
  Survival after 7 days Number: 2.0 ± 0.32
[5]; [13]
  Survival after 24 hours Number: 8.0 ± 0.91
[5]; menthol 80 μg ml^−1
  Survival after 7 days Number: 0.0 ± 0.00
[5]; [14]
  Survival after 24 hours Number: 4.0 ± 0.41
[5]; menthol 90 μg ml^−1
  Survival after 7 days Number: 0.0 ± 0.00
[5]; [15]
  Survival after 24 hours Number: 2.0 ± 0.41
[5]; menthol 100 μg ml^−1
  Survival after 7 days Number: 0.0 ± 0.00
[5]; [16]
  Survival after 24 hours Number: 0.4 ± 0.32
